Test results: BindingDB's records for doi:10.7270/Q2TX3CSC (Vanderbilt Screening Center for GPCRs, Ion Channels and …, 2009)

Molecular target: T1, Solute carrier family 12 member 5 (Homo sapiens, UniProt Q9H2X9)
T1 sequence (Q9H2X9 whole entry): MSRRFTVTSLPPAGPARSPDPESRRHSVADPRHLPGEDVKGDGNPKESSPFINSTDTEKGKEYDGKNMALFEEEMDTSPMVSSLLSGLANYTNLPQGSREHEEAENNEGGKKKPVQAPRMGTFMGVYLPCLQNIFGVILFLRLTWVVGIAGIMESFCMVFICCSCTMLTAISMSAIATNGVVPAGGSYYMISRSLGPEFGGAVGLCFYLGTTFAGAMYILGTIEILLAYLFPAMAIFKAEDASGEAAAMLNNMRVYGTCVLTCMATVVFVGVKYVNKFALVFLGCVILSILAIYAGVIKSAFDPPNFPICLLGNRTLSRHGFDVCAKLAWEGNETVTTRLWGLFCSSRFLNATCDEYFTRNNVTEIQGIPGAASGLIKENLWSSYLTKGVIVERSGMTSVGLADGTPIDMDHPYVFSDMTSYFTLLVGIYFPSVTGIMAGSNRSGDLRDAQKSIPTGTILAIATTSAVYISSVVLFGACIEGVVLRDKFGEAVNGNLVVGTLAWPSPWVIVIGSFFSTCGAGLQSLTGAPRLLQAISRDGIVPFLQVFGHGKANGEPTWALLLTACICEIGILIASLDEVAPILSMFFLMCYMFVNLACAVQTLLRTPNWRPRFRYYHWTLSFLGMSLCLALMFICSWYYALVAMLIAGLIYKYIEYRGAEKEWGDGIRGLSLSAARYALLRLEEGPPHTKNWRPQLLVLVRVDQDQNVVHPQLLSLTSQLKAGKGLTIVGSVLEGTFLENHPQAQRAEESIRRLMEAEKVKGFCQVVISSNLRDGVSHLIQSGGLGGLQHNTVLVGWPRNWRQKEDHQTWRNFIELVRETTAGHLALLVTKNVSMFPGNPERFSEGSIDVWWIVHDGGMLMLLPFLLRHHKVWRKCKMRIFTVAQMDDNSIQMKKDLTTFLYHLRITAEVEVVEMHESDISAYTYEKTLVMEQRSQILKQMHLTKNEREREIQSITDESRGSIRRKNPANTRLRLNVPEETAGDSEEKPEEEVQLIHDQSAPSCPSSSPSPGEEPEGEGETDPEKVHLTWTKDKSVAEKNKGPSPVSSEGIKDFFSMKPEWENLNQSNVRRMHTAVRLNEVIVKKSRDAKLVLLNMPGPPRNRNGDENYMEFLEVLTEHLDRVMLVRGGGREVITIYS
Assay: concentration-response of KCC2 transport modulators – cell-based, HEK293 KCC2, FluoZin-2 fluorescence, dose response (AID 1736)

[1] = inactive by the depositor's call

Question: How did the EC50 turn out when Cc1ccc(S(=O)(=O)N2CCC(=O)N(C(COCc3ccccc3)Cc3ccccc3)CC2)cc1 (stereo not drawn) [1-(4-methylphenyl)sulfonyl-4-(1-phenyl-3-phenylmethoxy-propan-2-yl)-1,4-diazepan-5-one] was run?
Answer: The EC50 was 1.69 µM.

Question: Which EC50 does the source give for O=C(CNC(=O)/C(=C/c1ccccc1)NC(=O)c1ccc(Br)cc1)OCc1ccccc1 [(phenylmethyl) 2-[[(Z)-2-[(4-bromophenyl)carbonylamino]-3-phenyl-prop-2-enoyl]amino]ethanoate] here?
Answer: Its EC50 is 1.15 µM.

Question: For Cc1noc(/C=C/c2ccco2)c1S(=O)(=O)N1CCC(C(=O)N2CCc3ccccc3C2)CC1 [2-{[1-({5-[(E)-2-(2-furyl)vinyl]-3-methylisoxazol-4-yl}sulfonyl)piperidin-4-yl]carbonyl}-1,2,3,4-tetrahydroisoquinoline], which EC50 is on record?
Answer: The EC50 was 4.09 µM.

Question: O=C(CSc1ccc(-c2ccccc2)nn1)Nc1ccc2c(c1)OCCO2 [MLS000724887] was tested. Which EC50 did it give?
Answer: The EC50 was 3.48 µM.

Question: For O=C(C1CCN(c2nc3ccc(Br)cc3s2)CC1)N1CCC2(CC1)OCCO2 [8-{[1-(6-bromo-1,3-benzothiazol-2-yl)piperidin-4-yl]carbonyl}-1,4-dioxa-8-azaspiro[4.5]decane], which EC50 is on record?
Answer: The EC50 was 14.3 µM.

Question: For COc1cccc(Nc2nnc(S)s2)c1 [5-(3-methoxyanilino)-3H-1,3,4-thiadiazole-2-thione], which EC50 is on record?
Answer: Its EC50 is 3.05 µM.

Question: For COc1ccc(-c2cc(CCCC(=O)NCCc3ccccc3)no2)cc1 [4-[5-(4-methoxyphenyl)-1,2-oxazol-3-yl]-N-(2-phenylethyl)butanamide], which EC50 is on record?
Answer: Its EC50 is 0.725 µM.

Question: For COc1cccc(CNC(=O)CSc2ccc(-c3cccs3)nn2)c1 [MLS000621194], which EC50 is on record?
Answer: The EC50 was 19.5 µM.

Question: COc1ccc(-n2cnnc2SCC(=O)Nc2cc(S(=O)(=O)N3CCCCC3)ccc2C)cc1 [2-[[4-(4-methoxyphenyl)-1,2,4-triazol-3-yl]sulfanyl]-N-(2-methyl-5-piperidin-1-ylsulfonyl-phenyl)ethanamide] was tested. Which EC50 did it give?
Answer: Its EC50 is 15.1 µM.

Question: With O=C(CCCn1ncn2c(cc3occc32)c1=O)N1CCc2ccccc2C1 [3-[4-(3,4-dihydro-1H-isoquinolin-2-yl)-4-keto-butyl]furo[3,4]pyrrolo[3,5-c][1,2,4]triazin-4-one] as the compound, how does the EC50 [1] read?
Answer: Its EC50 is 44.2 µM.

Question: Cn1c(CSc2nc3ccccc3s2)nc2ccccc21 [2-(1-Methyl-1H-benzoimidazol-2-ylmethylsulfanyl)-benzothiazole] was tested. Which EC50 did it give?
Answer: Its EC50 is 14.8 µM.

Question: CCCn1c(N)c(C(=O)CSc2nnc(Cc3ccccc3)o2)c(=O)n(C)c1=O [6-amino-3-methyl-5-[1-oxo-2-[[5-(phenylmethyl)-1,3,4-oxadiazol-2-yl]thio]ethyl]-1-propylpyrimidine-2,4-dione] was tested. Which EC50 did it give?
Answer: The EC50 was 0.017 µM.

Question: With Cc1ccc(CN(C)C(=O)c2cc(COc3ccc(F)cc3Cl)on2)o1 [5-[(2-chloranyl-4-fluoranyl-phenoxy)methyl]-N-methyl-N-[(5-methylfuran-2-yl)methyl]-1,2-oxazole-3-carboxamide] as the compound, how does the EC50 [1] read?
Answer: Its EC50 is 89.2 µM.

Question: Which EC50 does the source give for CCn1c(SCC(=O)Nc2ccc(Cl)cc2)nc2nc3c(cc2c1=O)CCCC3 [MLS000589154] here?
Answer: The EC50 was 28.2 µM.

Question: How did the EC50 turn out when CC(=NNC(=S)Nc1c(C)cccc1C)c1cc2ccccc2o1 [SMR000260555] was run?
Answer: Its EC50 is 4.46 µM.

Question: How did the EC50 turn out when CCOc1[nH]n(-c2ccccc2)c(=O)c1C=Nc1ccc(F)cc1F [(4E)-4-[[[2,4-bis(fluoranyl)phenyl]amino]methylidene]-5-ethoxy-2-phenyl-pyrazol-3-one] was run?
Answer: Its EC50 is 0.461 µM.

Question: With CC(C)N1C(=O)S/C(=C/c2ccccc2OCc2ccc(C(=O)O)cc2)C1=O as the compound, how does the EC50 read?
Answer: The EC50 was 1.48 µM.

Question: For Cc1nc2c(-c3ccc(Cl)cc3)c(C)[nH]n2c(=O)c1Cc1ccccc1 [6-benzyl-3-(4-chlorophenyl)-2,5-dimethylpyrazolo[1,5-a]pyrimidin-7(4H)-one], which EC50 [1] is on record?
Answer: Its EC50 is 43.9 µM.

Question: Cc1cccc(OCCc2nnc(N)s2)c1C [5-[2-(2,3-Dimethyl-phenoxy)-ethyl]-[1,3,4]thiadiazol-2-ylamine] was tested. Which EC50 did it give?
Answer: Its EC50 is 37.5 µM.

Question: How did the EC50 [1] turn out when O=C(O)/C=C/c1cn(Cc2ccccc2)nc1-c1ccc(Cl)cc1 [(E)-3-[1-benzyl-3-(4-chlorophenyl)pyrazol-4-yl]acrylic acid] was run?
Answer: The EC50 was 26.3 µM.

Question: Which EC50 does the source give for O=C(NCc1cccnc1)c1ccc(COc2ccc(Cl)cc2Cl)o1 [5-[(2,4-dichlorophenoxy)methyl]-N-(3-pyridinylmethyl)-2-furancarboxamide] here?
Answer: The EC50 was 668 µM.

Question: How did the EC50 turn out when Fc1ccc(CSc2nncn2NC/C=C/c2ccccc2)cc1 [3-[(4-fluorobenzyl)thio]-N-(3-phenyl-2-propen-1-yl)-4H-1,2,4-triazol-4-amine] was run?
Answer: Its EC50 is 30.2 µM.

Question: How did the EC50 turn out when CN(C)S(=O)(=O)c1cccc(NC(=O)c2cc3c(cc2Cl)N2CCCCC=C2NS3(=O)=O)c1 [2-chloranyl-N-[3-(dimethylsulfamoyl)phenyl]-5,5-bis(oxidanylidene)-8,9,10,11-tetrahydro-7H-azepino[2,1-c][1,2,4]benzothiadiazine-3-carboxamide] was run?
Answer: Its EC50 is 281 µM.

Question: With CCN(CC)c1ccc2c(C)c(-c3ccc(N)cc3)c(=O)oc2c1 [3-(4-aminophenyl)-7-(diethylamino)-4-methyl-1-benzopyran-2-one] as the compound, how does the EC50 read?
Answer: The EC50 was 0.986 µM.

Question: Which EC50 does the source give for Fc1cccc(F)c1C=NNC(=S)Nc1cccnc1 [1-[(2,6-difluorobenzylidene)amino]-3-(3-pyridyl)thiourea] here?
Answer: The EC50 was 6.93 µM.

Question: How did the EC50 turn out when CS/C(=N\Cc1ccc(F)cc1)NS(=O)(=O)c1cccs1 [3-(4-fluorobenzyl)-2-methyl-1-(2-thienylsulfonyl)isothiourea] was run?
Answer: Its EC50 is 0.702 µM.

Question: For CN1/C(=C\C(=S)NC(=O)c2cccc(Br)c2)C(C)(C)c2ccccc21 [SMR000254682], which EC50 is on record?
Answer: The EC50 was 5.4 µM.

Question: Which EC50 does the source give for Cc1ccc(/C=C2\SC(=S)N(c3c(C)n(C)n(-c4ccccc4)c3=O)C2=O)cc1 [3-(1,5-dimethyl-3-oxo-2-phenyl-2,3-dihydro-1H-pyrazol-4-yl)-5-(4-methylbenzylidene)-2-thioxo-1,3-thiazolidin-4-one] here?
Answer: The EC50 was 0.13 µM.

Question: With COc1ccc(S(=O)(=O)N(CCc2ccccc2)CC(=O)O)cc1Cl [2-[(3-chloranyl-4-methoxy-phenyl)sulfonyl-(2-phenylethyl)amino]ethanoic acid] as the compound, how does the EC50 read?
Answer: Its EC50 is 7.63 µM.

Question: With Cc1ccc(/C=C2/Sc3ccccc3N(CC(=O)NCCCOC(C)C)C2=O)cc1 [2-[(2E)-2-[(4-methylphenyl)methylidene]-3-oxidanylidene-1,4-benzothiazin-4-yl]-N-(3-propan-2-yloxypropyl)ethanamide] as the compound, how does the EC50 read?
Answer: Its EC50 is 964 µM.

Question: O=C(CSc1nnc(-c2ccc(F)cc2)o1)N1CCN(C(=O)c2ccco2)CC1 [2-[5-(4-Fluoro-phenyl)-[1,3,4]oxadiazol-2-ylsulfanyl]-1-[4-(furan-2-carbonyl)-piperazin-1-yl]-ethanone] was tested. Which EC50 did it give?
Answer: Its EC50 is 7.01 µM.

Question: How did the EC50 turn out when CC(C)(CN=C(S)NCCc1ccccc1)CN=C(S)NCCc1ccccc1 [1-[2,2-dimethyl-3-(2-phenylethylcarbamothioylamino)propyl]-3-(2-phenylethyl)thiourea] was run?
Answer: Its EC50 is 165 µM.

Question: With O=C(Cn1nc(-c2ccccc2)ccc1=O)NCc1ccc2c(c1)OCO2 [2-(6-keto-3-phenyl-pyridazin-1-yl)-N-piperonyl-acetamide] as the compound, how does the EC50 read?
Answer: Its EC50 is 3.26 µM.

Question: Which EC50 does the source give for C=CCn1c(Cc2cccs2)nnc1SCC(=O)c1ccc2ccccc2c1 [1-(2-naphthalenyl)-2-[[4-prop-2-enyl-5-(thiophen-2-ylmethyl)-1,2,4-triazol-3-yl]thio]ethanone] here?
Answer: Its EC50 is 4.42 µM.

Question: With O=S(=O)(Nc1nc2ccccc2nc1N1CCN(c2ccccn2)CC1)c1ccc(Cl)cc1 [4-chloranyl-N-[3-(4-pyridin-2-ylpiperazin-1-yl)quinoxalin-2-yl]benzenesulfonamide] as the compound, how does the EC50 read?
Answer: Its EC50 is 6.8 µM.

Question: O=C(NCCc1c[nH]c2ccccc12)c1cc(S(=O)(=O)N2CCCCC2)ccc1N1CCOCC1 [N-[2-(1H-indol-3-yl)ethyl]-2-morpholin-4-yl-5-piperidin-1-ylsulfonylbenzamide] was tested. Which EC50 did it give?
Answer: Its EC50 is 208 µM.

Question: With Cc1[nH]c2ccccc2c1Cc1nnc(S)o1 as the compound, how does the EC50 read?
Answer: Its EC50 is 3.21 µM.

Question: For CC(C)c1onc(C(=O)N2CCN(Cc3ccccc3)CC2)c1[N+](=O)[O-] [(4-benzylpiperazin-1-yl)-(4-nitro-5-propan-2-yl-1,2-oxazol-3-yl)methanone], which EC50 is on record?
Answer: Its EC50 is 0.34 µM.

Question: With COc1cc(CC(C)N)c(OC)cc1I (stereo not drawn) [[125I]2,5-dimethoxy-4-iodoamphetamine] as the compound, how does the EC50 read?
Answer: Its EC50 is 290 µM.

Question: COc1ccc(N2C(=S)N=C(Nc3cccc(C)c3)C23CCCCC3)cc1 [1-(4-methoxyphenyl)-4-(3-methylanilino)-1,3-diazaspiro[4.5]dec-3-ene-2-thione] was tested. Which EC50 did it give?
Answer: Its EC50 is 771 µM.

Question: For Cc1nn(-c2nc3ccccc3[nH]2)c(N)c1-c1ccccc1 [MLS000063763], which EC50 is on record?
Answer: The EC50 was 21.3 µM.

Question: Which EC50 does the source give for O=C(CSc1ccccc1C(=O)NCc1ccccc1)NC12CC3CC(CC(C3)C1)C2 here?
Answer: Its EC50 is 9.17 µM.

Question: How did the EC50 turn out when CCn1nnnc1SCC(=O)Nc1nc(-c2cccs2)cs1 [2-(1-Ethyl-1H-tetrazol-5-ylsulfanyl)-N-(4-thiophen-2-yl-thiazol-2-yl)-acetamide] was run?
Answer: The EC50 was 1.32 µM.
